Source: patent publication US9096832B2, “Differentiation of human embryonic stem cells” (LifeScan, Inc., priority 2007, dated 2015)

Tests used:
[1] = system: human embryonic stem cell line H9; test: Formation of pancreatic endocrine cells expressing Nkx2.2 (PCR); format: cell-based
Method: Cells were continuously cultured for another 3 to 5 days in basal medium with retinoic acid at 1 μM, alone or with bFGF. RNA samples were harvested from cells at various time points along this process to help evaluate the directed differentiation of the cells. Furthermore, culture medium and factors were regularly removed and replenished throughout the differentiation protocol.

[2] = system: human embryonic stem cell line H9; test: Immunocytochemistry of definitive endoderm markers after activin A treatment; format: cell-based; conditions: activin A for five days
Source text: The level of expression of definitive endoderm markers was examined by PCR (FIG. 1), FACS (results summarized in Table II), and immunohistochemistry (FIG. 2).
Levels of expression for HNF-3beta, Sox-17, and GATA4 were low in untreated cells, approximately 10 to 20% of all cells.

[3] = system: human embryonic stem cell line H9; test: CXCR4 expression by FACS, Activin A +/- Wnt3a, Example 34; format: cell-based; conditions: end of the 5th day, H9 passage 54
Method: The effect that Wnt-3a treatment has on cytokine expression was analyzed using a protein array. Cells of the human embryonic stem cell line H9 were cultured according to the methods described in Example 15. At passage 54, cells were differentiated in the presence of 100 ng/mlActivinA+/−10 ng/mlWnt3a for 2 days in 0.5% FBS DMEM/F12.
At the end of the 5th day, CXCR4 expression was determined by FACS for each treatment group.

[4] = system: H9 cells; test: Immunofluorescence staining of DE markers, activin A +/- Wnt-3a; format: cell-based, human
Source text: Day 5 DE cultures of H9 cells were stained according to Example 10 for SOX-17, HNF-3B, GATA-4, N-cadherin, and E-cadherin. All nuclei were counter stained with DAPI.

Substance	increase of Nkx2.2 expression compared to samples without activin A ([1]; 50 ng/ml activin A with 50 ng/ml basic FGF and 1 μM Retinoic Acid)	Pdx1 expression ([1]; activin A for the first three days of culture)	cells positive for Sox17 and HNF-3beta (immunocytochemistry) [2]	differentiated cells still Oct4 positive (immunocytochemistry) [2] [%]	cells expressing CXCR4 (FACS) [3] [%]	nuclei stained positive for SOX-17, HNF-3beta, and GATA-4 ([4]; 20 ng/ml Wnt-3a, Day 5 DE cultures)	expression of N-cadherin ([4]; addition of Wnt-3a)	expression of e-cadherin ([4]; addition of Wnt-3a)
Activin A: activin A (a member of the TGFβ superfamily), R&D Systems; 'w/o wnt' in Table VII = 100 ng/ml Activin A without Wnt3a	about 35 fold	maintained Pdx1 expression at a level similar to samples containing no activin A	30-40%	~100	1			
Wnt-3a						significantly larger number	enhanced expression	significant loss of expression
